This experiment addresses LTB4 receptor (Homo sapiens, UniProt Q15722). Kind of experiment: receptor binding test. From the text: The activity can be investigated pharmacologically and biochemically using tests as disclosed for example in WO 93/16036, pp. 15 to 17; reference is hereby made to the contents of this publication.

LTB4 receptor, sequence (Q15722 whole entry): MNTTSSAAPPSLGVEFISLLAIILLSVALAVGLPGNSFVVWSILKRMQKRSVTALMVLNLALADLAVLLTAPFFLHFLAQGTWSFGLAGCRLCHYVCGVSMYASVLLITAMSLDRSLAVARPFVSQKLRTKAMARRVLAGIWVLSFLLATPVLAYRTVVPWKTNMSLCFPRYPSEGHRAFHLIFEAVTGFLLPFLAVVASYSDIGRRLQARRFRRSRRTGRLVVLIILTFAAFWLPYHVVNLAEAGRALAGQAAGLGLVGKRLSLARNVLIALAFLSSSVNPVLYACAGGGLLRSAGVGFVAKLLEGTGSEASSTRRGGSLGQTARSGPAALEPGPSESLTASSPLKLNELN

Compound `CCCc1cc(-c2ccc(C(=N)N)cc2)ccc1OCCOc1cccc(O[C@@H]2O[C@H](C(=O)O)[C@@H](O)[C@H](O)[C@H]2O)c1` [Example 1, 3′-n-propyl-4′-[2-(3-hydroxyphenoxy)-ethoxy]-1,1′-biphenyl-4-carboximidamide-O-β-D-glucuronide] had a Ki of 3.6 nM.
